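All cell lines were grown in 96-well plates and treated with compound for 48 hours. TGI is the concentration that stops growth completely.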
What was measured:
Assay in all cases: NCI tumour cell line growth inhibition, 48 h
HT29 colon = system: HT29 colon
HOP-62 NSCLC = system: HOP-62 NSCLC
HCT-116 colon = system: HCT-116 colon
UACC-62 melanoma = system: UACC-62 melanoma
PC-3 prostate = system: PC-3 prostate
SF-268 CNS = system: SF-268 CNS
NCI-H23 lung = system: NCI-H23 lung
K-562 leukemia = system: K-562 leukemia
CAKI-1 renal = system: CAKI-1 renal
MALME-3M melanoma = system: MALME-3M melanoma
U251 CNS = system: U251 CNS
NCI-H226 lung = system: NCI-H226 lung
M14 melanoma = system: M14 melanoma
MDA-MB-435 = system: MDA-MB-435
786-0 renal = system: 786-0 renal
OVCAR-5 ovarian = system: OVCAR-5 ovarian
HCT-15 colon = system: HCT-15 colon
RPMI-8226 leukemia = system: RPMI-8226 leukemia
NCI-H522 lung = system: NCI-H522 lung
BT-549 breast = system: BT-549 breast

| Structure (SMILES) | TGI (HT29 colon) [µM] | TGI (HOP-62 NSCLC) [µM] | TGI (HCT-116 colon) [µM] | TGI (UACC-62 melanoma) [µM] | TGI (PC-3 prostate) [µM] | TGI (SF-268 CNS) [µM] | TGI (NCI-H23 lung) [µM] | TGI (K-562 leukemia) [µM] | TGI (CAKI-1 renal) [µM] | TGI (MALME-3M melanoma) [µM] | TGI (U251 CNS) [µM] | TGI (NCI-H226 lung) [µM] | TGI (M14 melanoma) [µM] | TGI (MDA-MB-435) [µM] | TGI (786-0 renal) [µM] | TGI (OVCAR-5 ovarian) [µM] | TGI (HCT-15 colon) [µM] | TGI (RPMI-8226 leukemia) [µM] | TGI (NCI-H522 lung) [µM] | TGI (BT-549 breast) [µM] |
| --- | --- | --- | --- | --- | --- | --- | --- | --- | --- | --- | --- | --- | --- | --- | --- | --- | --- | --- | --- | --- |
| O=C(CC(C(=O)c1cccs1)c1ccsc1)c1ccc(Cl)cc1 (stereo not given) | > 100 | > 100 | > 100 | > 100 | > 100 | > 100 | > 100 | > 100 | > 100 | > 100 | > 100 | > 100 | > 100 | > 100 | > 100 | > 100 | > 100 | > 100 | – | – |
| CN(C)CCNC(=O)c1ccccc1Nc1c(Cl)cccc1Cl | 20 | 27.2 | 20.6 | 31.4 | – | 31.5 | 30.9 | 36.2 | – | – | 23.9 | 29.4 | 31 | – | 18.9 | 22.2 | 27.9 | 29.1 | – | – |
| COc1cccc([C@@H]2C/C(=N\NC(=O)C(=O)N[C@@H](C)c3ccccc3)c3cc4c(cc3N2)OCO4)c1 | – | > 100 | > 100 | > 100 | > 100 | > 100 | – | > 100 | > 100 | – | > 100 | > 100 | > 100 | 17.2 | > 100 | > 100 | > 100 | > 100 | – | – |
| Nc1nc(N)c2c(CCc3ccc(C(=O)N[C@@H](CCC(=O)O)C(=O)O)cc3)ccnc2n1 | > 100 | > 100 | > 100 | > 100 | > 100 | > 100 | > 100 | > 100 | > 100 | > 100 | > 100 | > 100 | > 100 | > 100 | > 100 | > 100 | > 100 | > 100 | > 100 | – |
| CC(C)NC1CCCCC2c3cc(F)ccc3[C@]12O (stereo not given in full) | > 100 | > 100 | > 100 | > 100 | – | > 100 | > 100 | > 100 | > 100 | > 100 | > 100 | > 100 | > 100 | – | > 100 | > 100 | > 100 | > 100 | > 100 | – |
| O=C1CCN=C(NC(=O)C(F)(F)F)N1CCc1c[nH]c2ccccc12 | > 100 | > 100 | > 100 | > 100 | > 100 | > 100 | > 100 | > 100 | > 100 | > 100 | > 100 | > 100 | > 100 | > 100 | > 100 | > 100 | > 100 | > 100 | > 100 | – |
| CC1(OCc2ccccc2)C(=O)N2C1N(C(=O)OCc1ccccc1)CC2(C)C (stereo not given) | > 100 | > 100 | > 100 | > 100 | – | > 100 | > 100 | > 100 | – | > 100 | > 100 | > 100 | > 100 | – | > 100 | – | > 100 | 95.7 | – | – |
| CC(/C=C/c1ccccc1)=N\N=C(C)\C=C\c1ccccc1 | > 100 | > 100 | > 100 | – | – | > 100 | > 100 | > 100 | – | > 100 | > 100 | > 100 | > 100 | – | > 100 | > 100 | > 100 | > 100 | > 100 | – |
| COc1ccc2c(c1)CC[C@@H]1C2CC[C@]2(C)C(=N\O)/C(=N/O)CC12 (stereo not given in full) | 5.14 | 26 | 29.5 | 26.6 | – | 37.8 | 23.1 | 36 | 24.1 | 32.5 | 28.7 | 27.1 | 32.9 | – | 31.8 | 25.8 | 26.2 | 35.2 | 11.5 | – |
| Cc1ccc([N+]2=NC(c3ccc([N+](=O)[O-])cc3)=NN(c3ccccc3)C2)cc1 | > 100 | > 100 | > 100 | – | – | > 100 | > 100 | > 100 | – | > 100 | > 100 | > 100 | – | – | > 100 | > 100 | > 100 | > 100 | 39 | – |
| CCOc1cc(/C=N\O)cc(/C=N/O)c1O | > 100 | > 100 | > 100 | > 100 | > 100 | 64.1 | > 100 | > 100 | 61.1 | > 100 | 84.3 | > 100 | > 100 | > 100 | > 100 | > 100 | 92.6 | > 100 | – | – |
| CCOC(=O)CCC(NC(=O)C(CCC(=O)OCC)NC(=O)C(Cc1ccc([N+](=O)[O-])cc1)NC(C)=O)C(=O)NNC(=O)OC(C)(C)C (stereo not given) | > 100 | > 100 | > 100 | > 100 | > 100 | – | > 100 | > 100 | – | > 100 | > 100 | > 100 | > 100 | – | > 100 | > 100 | > 100 | > 100 | – | > 100 |
| CCOc1ccc(NC(=O)/C(Cc2nc3ccccc3[nH]c2=O)=N\O)cc1 | – | > 100 | > 100 | > 100 | – | > 100 | > 100 | > 100 | > 100 | > 100 | > 100 | – | > 100 | – | > 100 | > 100 | > 100 | > 100 | > 100 | – |
| COc1cc2c(NCCN(C)C)nc3c4cc5c(cc4ccc3c2cc1OC)OCO5 | 6.56 | 7.09 | 6.77 | 8.41 | 8.7 | 8.98 | 6.32 | 7.49 | 5.88 | 7.78 | 7.83 | 8.18 | 7.4 | 6.79 | 6.15 | 6.71 | 6.56 | 17.2 | 8.02 | – |

— PubChem BioAssay (NCI)
